The values that follow come from US12055553B2, “Method for diagnosing risk for inflammatory disease through glycan profiling” (The Regents of the University of California, priority 2017, dated 2024).

Data set [1] deals with Caco-2 cells. The data set is classed as cell-based. To be noted: for change in fucosylated glycans / fucosylation: acetate, lactate. As to the method: (§1) We examined whether supplementation of free monosacchaides derived from diet changes N-glycosylation outcomes on the intestinal cell-surface at concentrations relevant to physiological conditions. Changes in glycosylation were assessed by globally releasing glycans from membrane proteins extracted from fully differentiated (Caco-2) and partially differentiated (HT-29) intestinal epithelial cells and analyzing the mixture by porous graphitized carbon (PGC)-LC-MS. […] The glycan profile under normal growth conditions was used as a frame of reference with which to compare the glycome at varied environments.
(§2) Human colorectal adenocarcinoma Caco-2 cells derived from a person, were obtained from American Type Culture Collection (ATCC, VA) and grown in Eagle's Minimum Essential Medium (EMEM) supplemented with non-essential amino acids, 2 mM L-glutamine, 10% (v/v) fetal bovine serum (Life Technologies, NY), 1 mM sodium pyruvate, 1.5 g/L sodium bicarbonate, 100 U/mL penicillin, and 100 μg/mL streptomycin. Alternatively, Caco-2 cells were grown in Dulbecco's Modified Eagle's Medium (DMEM) supplemented with 10% (v/v) fetal bovine serum, 100 U/mL penicillin, and 100 μg/mL streptomycin. Human colorectal adenocarcinoma HT-29 cells, derived from a person, were obtained from ATCC and grown in McCoy's 5A medium supplemented with 10% (v/v) fetal bovine serum, 100 U/mL penicillin, and 100 μg/mL streptomycin. Cells were subcultured at 80% confluency and maintained at 37° C. in a humidified incubator with 5% CO=2. All treatments were added to the media after cell differentiation. Caco-2 cells were fully differentiated 14-days post-confluency. HT-29 cells were partially differentiated 4-days post-confluency. After 72 h, cells were collected in biological triplicates by scraping A fixed count of 2×10^6 viable cells was used for each experiment Passage number between experiments was controlled to no higher than P40 and a delta P of no more than 20. High passage cells were scraped after P80. Media was renewed three times a week unless specified. Monolayer integrity and quality of cell borders were evaluated under the microscope routinely during growth and before harvest.
(§3) In brief harvested cells were resuspended in homogenization buffer containing 0.25 M sucrose, 20 mM HEPES-KOH (pH 7.4), and 1:100 protease inhibitor (EMD Millipore, CA). Cell lysis was performed on ice using a probe sonicator (Qsonica, CT) with five alternating and on and off pulses in 5 and 10 s intervals, respectively. Lysates were […] at 2,000×g for 10 min to remove the nuclear fraction and cellular debris. The supernatant was collected and brought to 1 mL with homogenization buffer for ultracentrifugation at 200,000×g for 45 min at 4° C. The pallet was resuspended and repelleted by ultracentrifugation in 0.2 M Na2CO3 (pH 11) followed by water to fragment the endoplasmic reticulum and remove the cytoplasmic fraction, respectively. The resulting membrane faction was isolated and stored at −20° C. until further processing.
(§4) Membrane pellets were resuspended with 100 μL of 100 mM ammonium bicarbonate in 5 mM dithiothreitol and heated for 10 s at 100° C. to thermally denature the proteins. […] After addition of 400 μL of chilled ethanol, samples were placed in −80° C. for 1.5 h and centrifuged for 20 min at 21,130×g to precipitate residual deglycosylated proteins. The supernatant containing the released N-glycans was collected and dried. N-Glycans were purified by solid phase extraction containing a porous graphitized carbon (PGC) matrix. Eluted fractions were dried in vacuo.

In data set [2] the test system is THP-1 cells. Description: Lectin array of THP-1 monocyte cell surface glycan composition after monosaccharide supplementation. Type of data set: cell-based. To be noted: 3 days. As to the method: THP-1 cells (monocyte cell line) were incubated with different sugars (i.e. monosaccharides) for 3 days. Lectin arrays were used to detect changes in the cell surface glycan composition. Secreted HDL from the cell supernatant (monocytes secrete their own HDL) was isolated and then analyzed to determine the glycan composition.
• ConA (Concanavalin A): binds internal and nonreducing terminal α-D-mannosyl (αMan) and α-D-glucosyl groups (αGIc) • JAC (Jacalin): binds galactose-containing O-glycoproteins (Galβ3GalNac) • SNA (Sambucus nigra): binds sialic acid attached to terminal galactose in α-2,6 and to a lesser degree, α-2,3 linkage (Neu5Acα6Gal/GalNac) • AAL (Aleuria auanda lectin): binds fucose linked (α-1,6) to N-acetylglucosamine or to fucose linked (α-1,3) to N-acetyllactosamine related structures, exposed core (α-1, 6) and outer arm (α-1, 2 or α-1, 3) linked fucose moieties. Sugar Treatments: • L-fucose: Tested 2 doses: 300 umol/L (physiologic) and 100 mmol/L. (Marquardt T, Blood, December 15; 94(12):3976-85, 1999): Named L-Fuc Low and L-Fuc High • Fructose: Tested 2 doses: 27 mmol/L (physiologic) and 100 mmol/L. (Hui H, Pancreas, August 38(6): 706-12, 2009); Named Fruc Low and Fruc High • N-acetylglucosamine (GlcNAc): Tested 1 dose: 100 mmol/L. (Villiger TK, Controlling the time evolution of mAb N-finked glycosylation, Part I: Microbioreactor experiments, Biotechnol Prog, September; 32(5):1123-1134, 2016) • Galactose: The two doses for the galactose treatment in the glycan array experiments were: 150 mmol/L and 75 mmol/L. (Villiger TK, Controlling the time evolution of mAb N-linked glycosylation, Part II: Model-based predictions, Biotechnol Prog, September; 32(5):135-1148, 2016)

Data set [3] relates to HT-29 cells. Description: Cell surface N-glycan profiling (PGC-LC-MS) of HT-29 after supplementation. The data set is classed as cell-based, Human. To be noted: for change in fucosylated glycans / change in high mannose type glycans / change in the HT-29 glycome / major groups of glycans: HT-29, 72 h; for change in fucosylated glycans / change in high mannose type glycans: fructose 50 mM, glutamine 10 mM; for change in high mannose type glycans: glutamate 2 mM; for change in the HT-29 glycome / major groups of glycans: acetate, lactate 10 mM, glutathione 2 mM. As to the method: as §1, §2, §3, §4

For data set [4] the following is noted: cited from earlier work.
[5] abbreviates: Caco-2, 72 h, fructose 50 mM, glutamine 10 mM.
The mark [6] stands for this setting: high dose (galactose 150 mmol/L, fructose 100 mmol/L, L-fucose 100 mmol/L).
The mark [7] stands for this setting: low dose (galactose 75 mmol/L, fructose 27 mmol/L, L-fucose 300 umol/L).
Where [8] appears, read: Caco-2, 72 h, fucose 25 mM, butyrate 10 mM, glutamine 10 mM.

Consider `O=C(CO)[C@@H](O)[C@H](O)[C@H](O)CO` [fructose], for which the “increase in abundance of high mannose type N-glycans” value in data set [1] (setting [5]) is 511%. Moreover, in data set [1] (Caco-2, 72 h, fructose 50 mM, GalNAc), the “increase in abundance of non-decorated complex/hybrid type N-glycans” value is 672%. In addition, the “fold increase of each of Hex3HexNAc4Fuc1, Hex4HexNAc5Fuc1, Hex6HexNAc4Fuc1, Hex5HexNAc5Fuc1” value in data set [1] (Caco-2, fructose 50 mM, 72 h) is reported as “more than 4 fold”. Moreover, in data set [2] (setting [6]), the “AAL binding (fucosylated glycans)” value is listed as “decreased”, the “JAC binding (terminal galactose containing glycans)” value is reported as “decreased” and the “SNA binding (terminal sialic acid)” value is “no effect”. For the same molecule, in data set [2] (setting [7]), the “AAL binding (fucosylated glycans)” value is on record as “decreased” and the “SNA binding (terminal sialic acid)” value is given as “decreased”. Also, the “ConA binding (glucose or mannose-terminated glycans)” value in data set [2] (single dose (GlcNAc 100 mmol/L) or dose not distinguished) was “decreased”. In data set [3], the “change in fucosylated glycans” value is “remained unaltered” and the “change in high mannose type glycans” value is on record as “remained unaltered”.
Take `NC(=O)CC[C@H](N)C(=O)O` [glutamine, L-glutamine]: the “change in high mannose type glycans” value in data set [1] (Caco-2, 72 h, treated vs untreated, lactose 70 mg/L, glutamine 10 mM) is “significant increases”; in data set [3] it was “significant increases”. Also, the “increase in abundance of high mannose type N-glycans” value in data set [1] (setting [5]) came out at 507%. The “change in sialylated glycans” value in data set [1] (Caco-2, 72 h, fucose 25 mM, Ac5-Sia up to 10 mM, butyrate 10 mM, glutamine 10 mM) is recorded as “remarkable constancy”. Also, the “change in fucosylated glycans / fucosylation” value in data set [1] (setting [8]) was “significant increases”. In addition, the “change in non-decorated complex/hybrid type N-glycans” value in data set [1] (Caco-2, 72 h, glutamine 10 mM, galactose) is given as “significant increases”. For the same molecule, the “fold increase of each of Man 5-Man 9” value in data set [1] (Caco-2, glutamine 10 mM, 72 h) is “more than 6 fold”. In addition, the “change in fucosylated glycans” value in data set [3] was “significant increases”. The “change in non-decorated complex/hybrid types of glycans” value in data set [3] (HT-29, glutamine 10 mM, 72 h) is “significant increases”.
On to `N[C@@H](CCC(=O)N[C@@H](CS)C(=O)NCC(=O)O)C(=O)O` [glutathione], for which the “change in the groups of cell surface glycans presented” value in data set [1] (Caco-2, 72 h, treated vs untreated, glucose 25 mM, glutamate 2 mM, glutathione 2 mM) is given as “essentially unaltered”. Further, in data set [3], the “change in the HT-29 glycome / major groups of glycans” value is given as “essentially unaltered”. Besides, in data set [3] (HT-29, glutathione 2 mM, 72 h), the “increase in high mannose type glycans” value was 37.1%.
In the case of `CC(O)C(=O)O` (centres unmarked) [lactate], the “change in fucosylated glycans / fucosylation” value in data set [1] (setting [8]) was “significant increase”. Moreover, in data set [1] (Caco-2, SCFA 10 mM, 72 h), the “fold decrease of Hex6HexNAc6Fuc1NeuAc3” value stood at 3.7 fold, the “fold decrease of Hex7HexNAc7Fuc1NeuAc1” value was found to be 3.4 fold and the “fold increase of Hex6HexNAc6NeuAc1” value was found to be 10 fold. Moreover, the “change in the HT-29 glycome / major groups of glycans” value in data set [3] is “minimal effects”.
Turning to `CC(=O)N[C@H]1[C@H]([C@H](O)[C@H](O)CO)OC(O)(C(=O)O)C[C@@H]1O` (some centres unmarked) [sialic acid], in data set [4], the pKa is 2.6.
